Measurements: PubChem BioAssay (NCI)
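Exposure lasted 48 hours, with cells grown in 96-well plates and compounds tested at five concentrations. TGI: concentration producing complete growth inhibition.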

Legend:
Assay in all cases: DTP human tumour cell line panel, 48 h
786-0 renal = tested on: 786-0 renal
A498 renal = tested on: A498 renal
A549 NSCLC = tested on: A549 NSCLC
CAKI-1 renal = tested on: CAKI-1 renal
COLO 205 colon = tested on: COLO 205 colon
EKVX NSCLC = tested on: EKVX NSCLC
HCT-15 colon = tested on: HCT-15 colon
HT29 colon = tested on: HT29 colon
M14 melanoma = tested on: M14 melanoma
NCI-H460 lung = tested on: NCI-H460 lung
NCI/ADR-RES ovarian = tested on: NCI/ADR-RES ovarian
PC-3 prostate = tested on: PC-3 prostate
SF-539 CNS = tested on: SF-539 CNS
SK-MEL-28 melanoma = tested on: SK-MEL-28 melanoma
SN12C renal = tested on: SN12C renal
SR leukemia = tested on: SR leukemia
U251 CNS = tested on: U251 CNS
UACC-257 melanoma = tested on: UACC-257 melanoma

Compound	TGI (786-0 renal) [µM]	TGI (A498 renal) [µM]	TGI (A549 NSCLC) [µM]	TGI (CAKI-1 renal) [µM]	TGI (COLO 205 colon) [µM]	TGI (EKVX NSCLC) [µM]	TGI (HCT-15 colon) [µM]	TGI (HT29 colon) [µM]	TGI (M14 melanoma) [µM]	TGI (NCI-H460 lung) [µM]	TGI (NCI/ADR-RES ovarian) [µM]	TGI (PC-3 prostate) [µM]	TGI (SF-539 CNS) [µM]	TGI (SK-MEL-28 melanoma) [µM]	TGI (SN12C renal) [µM]	TGI (SR leukemia) [µM]	TGI (U251 CNS) [µM]	TGI (UACC-257 melanoma) [µM]
O=C(CC(=O)N(C(=O)c1ccccc1)c1ccc(Cl)cc1)N/N=C\c1ccccc1O	> 100	> 100	> 100	> 100	> 100	> 100	> 100	> 100	> 100	> 100	> 100	> 100	> 100	> 100	> 100	> 100	> 100	> 100
CC(Oc1ccccc1)C(=O)NN (stereo not drawn)	> 100	> 100	> 100	> 100	> 100	> 100	> 100	> 100	> 100	> 100	> 100	> 100	> 100	> 100	> 100	> 100	> 100	> 100
COc1ccc(-n2nnc3c(C#N)c(-c4ccccc4)c(C)n3c2=O)cc1	40	> 100	> 100	> 100	> 100	> 100	> 100	> 100	> 100	> 100	> 100	> 100	> 100	> 100	> 100	91	> 100	> 100
CC1=NN(c2nc(N)nc(C(C)Sc3cc(Cl)c(C)cc3S(N)(=O)=O)n2)C(C)(C)C1 (stereo not drawn)	> 10	> 10	> 10	> 10	> 10	> 10	> 10	> 10	> 10	> 10	> 10	> 10	> 10	> 10	> 10	> 10	> 10	> 10
CC1=NN(C(=O)CC(=O)Nc2ccccc2C)C(=O)C1N=Nc1ccc(S(=O)(=O)c2ccc(N=NC3C(=O)N(C(=O)CC(=O)Nc4ccccc4C)N=C3C)cc2)cc1 (stereo not drawn)	> 100	> 100	> 100	> 100	> 100	> 100	> 100	> 100	> 100	> 100	> 100	> 100	> 100	> 100	> 100	> 100	> 100	> 100
CC(=O)c1c2c(cc3c1CC1(Cc4cc5c(cc4C1=O)CCC5)C3)CCC2 (stereo not drawn)	> 100	> 100	> 100	> 100	> 100	> 100	> 100	> 100	> 100	> 100	> 100	> 100	> 100	> 100	> 100	> 100	> 100	> 100
